Reference: patent US20160378912A1, “STRUCTURE-BASED MODELING AND TARGET-SELECTIVITY PREDICTION” (EPIGENETX, LLC, priority 2013, published 2016)
Like-named read-outs stand apart in the source and are kept apart here.

Tests used:
[1] = test system: HDAC isoforms; test: HDAC inhibition profiled over several HDAC isoforms (experimental); assay type: biochemical, human; settings: range of pIC50 over the profiled HDAC isoforms
[2] = biological target: HDAC3 (Homo sapiens, UniProt O15379); settings: cited from earlier work
[3] = biological target: HDAC4 (Homo sapiens, UniProt P56524); settings: cited from earlier work
[4] = biological target: HDAC5 (Homo sapiens, UniProt Q9UQL6); settings: against HDAC5; cited from earlier work
[5] = biological target: T1, HDAC6 (Homo sapiens, UniProt Q9UBN7); settings: cited from earlier work; for pIC50exp: HDAC6 experimental activity assigned; for pIC50: training set composition
T1 sequence (Q9UBN7 1-1215): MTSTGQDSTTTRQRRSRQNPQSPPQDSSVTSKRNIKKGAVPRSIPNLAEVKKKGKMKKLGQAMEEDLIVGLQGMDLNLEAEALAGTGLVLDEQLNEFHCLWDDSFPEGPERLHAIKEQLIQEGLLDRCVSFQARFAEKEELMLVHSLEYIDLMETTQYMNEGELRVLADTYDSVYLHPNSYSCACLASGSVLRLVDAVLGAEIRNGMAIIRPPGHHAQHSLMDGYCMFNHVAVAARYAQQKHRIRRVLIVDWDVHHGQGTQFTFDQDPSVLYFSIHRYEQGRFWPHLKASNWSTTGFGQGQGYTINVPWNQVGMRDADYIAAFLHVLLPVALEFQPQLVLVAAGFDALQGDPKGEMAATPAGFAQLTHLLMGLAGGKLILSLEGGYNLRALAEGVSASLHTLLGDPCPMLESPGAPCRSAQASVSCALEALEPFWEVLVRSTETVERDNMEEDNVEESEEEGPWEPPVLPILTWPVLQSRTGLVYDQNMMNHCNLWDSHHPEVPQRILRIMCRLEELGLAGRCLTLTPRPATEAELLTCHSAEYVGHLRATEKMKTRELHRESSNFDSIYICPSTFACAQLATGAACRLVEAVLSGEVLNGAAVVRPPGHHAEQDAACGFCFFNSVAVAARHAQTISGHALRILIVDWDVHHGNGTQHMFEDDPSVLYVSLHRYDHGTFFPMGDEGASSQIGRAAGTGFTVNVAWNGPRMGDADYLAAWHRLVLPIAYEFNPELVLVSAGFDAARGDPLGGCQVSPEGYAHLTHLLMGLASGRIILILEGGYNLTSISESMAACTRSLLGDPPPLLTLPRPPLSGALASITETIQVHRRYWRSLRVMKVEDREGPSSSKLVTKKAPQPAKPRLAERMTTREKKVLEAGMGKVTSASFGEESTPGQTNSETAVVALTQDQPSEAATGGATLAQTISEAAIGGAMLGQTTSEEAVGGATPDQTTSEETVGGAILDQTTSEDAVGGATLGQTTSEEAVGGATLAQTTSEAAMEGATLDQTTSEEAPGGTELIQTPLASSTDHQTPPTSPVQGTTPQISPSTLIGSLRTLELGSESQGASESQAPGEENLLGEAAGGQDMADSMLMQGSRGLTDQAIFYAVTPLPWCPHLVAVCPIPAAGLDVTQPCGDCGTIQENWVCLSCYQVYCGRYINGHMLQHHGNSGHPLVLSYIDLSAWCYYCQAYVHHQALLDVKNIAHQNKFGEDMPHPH

[6] = biological target: T2, HDAC7 (Homo sapiens, UniProt Q8WUI4); settings: cited from earlier work
T2 sequence (Q8WUI4 1-952): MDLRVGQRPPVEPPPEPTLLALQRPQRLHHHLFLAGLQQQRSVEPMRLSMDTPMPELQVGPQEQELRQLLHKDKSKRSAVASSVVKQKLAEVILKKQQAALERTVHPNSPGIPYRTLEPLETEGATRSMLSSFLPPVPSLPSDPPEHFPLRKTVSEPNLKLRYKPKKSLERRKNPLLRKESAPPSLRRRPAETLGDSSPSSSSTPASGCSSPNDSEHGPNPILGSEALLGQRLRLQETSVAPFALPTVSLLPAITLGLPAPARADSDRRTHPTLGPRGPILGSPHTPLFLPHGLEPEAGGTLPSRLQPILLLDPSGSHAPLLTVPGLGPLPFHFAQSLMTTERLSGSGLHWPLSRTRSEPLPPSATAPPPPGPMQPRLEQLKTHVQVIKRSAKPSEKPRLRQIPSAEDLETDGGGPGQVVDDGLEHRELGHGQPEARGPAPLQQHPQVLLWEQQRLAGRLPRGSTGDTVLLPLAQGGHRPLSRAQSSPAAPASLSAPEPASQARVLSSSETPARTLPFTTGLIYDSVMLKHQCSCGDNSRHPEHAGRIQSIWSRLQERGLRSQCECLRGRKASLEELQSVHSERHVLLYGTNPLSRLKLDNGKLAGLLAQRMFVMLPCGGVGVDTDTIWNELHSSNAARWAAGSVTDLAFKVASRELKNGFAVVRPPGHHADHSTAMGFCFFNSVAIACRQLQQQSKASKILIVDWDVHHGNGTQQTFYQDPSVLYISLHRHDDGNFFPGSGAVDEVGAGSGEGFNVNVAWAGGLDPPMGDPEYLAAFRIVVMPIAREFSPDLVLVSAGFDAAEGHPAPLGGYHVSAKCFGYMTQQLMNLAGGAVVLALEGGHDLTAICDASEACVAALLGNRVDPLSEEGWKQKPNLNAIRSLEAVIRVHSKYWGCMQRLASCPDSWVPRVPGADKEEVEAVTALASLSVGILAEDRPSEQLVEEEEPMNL

[7] = training set, read-out: HDACs inhibitory activities IC50

HDAC3, sequence (O15379 whole entry): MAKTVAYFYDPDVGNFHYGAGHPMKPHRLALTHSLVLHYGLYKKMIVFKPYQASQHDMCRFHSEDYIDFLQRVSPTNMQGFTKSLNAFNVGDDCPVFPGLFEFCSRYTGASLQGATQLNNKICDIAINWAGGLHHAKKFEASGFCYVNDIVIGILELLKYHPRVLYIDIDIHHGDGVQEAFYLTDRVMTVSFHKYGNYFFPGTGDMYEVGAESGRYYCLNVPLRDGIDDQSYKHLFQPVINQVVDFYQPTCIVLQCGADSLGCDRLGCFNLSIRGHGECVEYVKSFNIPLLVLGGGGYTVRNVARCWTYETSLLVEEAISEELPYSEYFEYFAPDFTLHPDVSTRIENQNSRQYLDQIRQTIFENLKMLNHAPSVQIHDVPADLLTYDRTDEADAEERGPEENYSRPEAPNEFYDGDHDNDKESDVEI
HDAC3, sequence (Q9Y618 395-489 partner limits assumed): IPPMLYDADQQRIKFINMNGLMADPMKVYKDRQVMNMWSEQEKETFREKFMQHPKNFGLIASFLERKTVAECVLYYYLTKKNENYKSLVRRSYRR
HDAC4, sequence (P56524 whole entry): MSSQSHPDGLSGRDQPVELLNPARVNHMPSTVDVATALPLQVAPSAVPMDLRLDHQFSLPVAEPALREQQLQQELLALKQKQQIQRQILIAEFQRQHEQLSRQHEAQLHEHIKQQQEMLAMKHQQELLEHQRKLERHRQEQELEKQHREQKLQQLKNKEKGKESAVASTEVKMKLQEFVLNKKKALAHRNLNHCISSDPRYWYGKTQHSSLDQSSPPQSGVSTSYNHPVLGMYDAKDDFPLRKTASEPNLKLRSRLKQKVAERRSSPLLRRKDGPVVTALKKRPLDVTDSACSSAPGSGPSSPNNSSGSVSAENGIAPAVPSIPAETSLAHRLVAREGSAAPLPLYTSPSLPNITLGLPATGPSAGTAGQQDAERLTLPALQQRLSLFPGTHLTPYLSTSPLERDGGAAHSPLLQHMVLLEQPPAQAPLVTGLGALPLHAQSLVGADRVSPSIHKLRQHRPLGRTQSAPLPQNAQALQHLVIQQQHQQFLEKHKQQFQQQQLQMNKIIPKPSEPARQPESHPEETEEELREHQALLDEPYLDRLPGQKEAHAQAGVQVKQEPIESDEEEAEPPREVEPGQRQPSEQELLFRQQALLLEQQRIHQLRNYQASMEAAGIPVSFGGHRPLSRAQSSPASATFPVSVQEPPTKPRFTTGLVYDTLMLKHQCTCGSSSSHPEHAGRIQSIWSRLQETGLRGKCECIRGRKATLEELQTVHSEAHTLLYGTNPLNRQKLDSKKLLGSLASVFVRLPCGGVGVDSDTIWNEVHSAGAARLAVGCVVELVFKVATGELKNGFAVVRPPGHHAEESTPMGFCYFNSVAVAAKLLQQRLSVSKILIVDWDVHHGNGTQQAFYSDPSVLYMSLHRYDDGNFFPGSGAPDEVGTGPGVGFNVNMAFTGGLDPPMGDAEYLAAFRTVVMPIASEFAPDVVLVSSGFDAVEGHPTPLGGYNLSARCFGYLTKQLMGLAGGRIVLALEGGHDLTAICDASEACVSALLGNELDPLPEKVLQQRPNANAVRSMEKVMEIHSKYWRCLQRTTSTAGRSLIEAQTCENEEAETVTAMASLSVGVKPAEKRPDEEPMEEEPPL
HDAC5, sequence (Q9UQL6 whole entry): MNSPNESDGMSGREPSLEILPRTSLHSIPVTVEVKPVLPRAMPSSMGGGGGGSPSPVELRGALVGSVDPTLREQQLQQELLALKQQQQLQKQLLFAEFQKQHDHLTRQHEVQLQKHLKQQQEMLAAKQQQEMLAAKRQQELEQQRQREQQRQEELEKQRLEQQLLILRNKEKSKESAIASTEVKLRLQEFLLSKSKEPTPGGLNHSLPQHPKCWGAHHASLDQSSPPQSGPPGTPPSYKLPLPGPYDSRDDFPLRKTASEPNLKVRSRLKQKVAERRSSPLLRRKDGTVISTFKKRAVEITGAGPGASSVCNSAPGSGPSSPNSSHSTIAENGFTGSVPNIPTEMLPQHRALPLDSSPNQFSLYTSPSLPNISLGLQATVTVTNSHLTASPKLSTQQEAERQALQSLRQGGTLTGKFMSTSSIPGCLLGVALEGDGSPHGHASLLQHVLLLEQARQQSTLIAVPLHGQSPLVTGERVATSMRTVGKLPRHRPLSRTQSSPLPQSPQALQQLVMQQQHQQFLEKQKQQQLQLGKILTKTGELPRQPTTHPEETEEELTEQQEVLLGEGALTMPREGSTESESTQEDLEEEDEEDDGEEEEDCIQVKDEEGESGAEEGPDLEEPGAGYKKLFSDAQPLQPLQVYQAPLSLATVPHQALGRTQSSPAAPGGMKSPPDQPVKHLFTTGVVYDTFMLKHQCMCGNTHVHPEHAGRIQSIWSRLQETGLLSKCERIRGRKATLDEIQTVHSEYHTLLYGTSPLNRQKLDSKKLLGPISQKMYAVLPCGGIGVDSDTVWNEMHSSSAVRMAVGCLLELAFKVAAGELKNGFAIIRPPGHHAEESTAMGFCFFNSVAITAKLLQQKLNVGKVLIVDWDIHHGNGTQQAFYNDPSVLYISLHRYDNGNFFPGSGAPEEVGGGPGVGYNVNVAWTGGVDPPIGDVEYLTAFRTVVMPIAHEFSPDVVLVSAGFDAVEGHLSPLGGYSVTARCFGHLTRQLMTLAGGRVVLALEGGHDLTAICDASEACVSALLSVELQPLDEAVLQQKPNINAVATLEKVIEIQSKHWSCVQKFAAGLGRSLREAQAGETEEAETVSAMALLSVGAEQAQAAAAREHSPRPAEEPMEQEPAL

## CCCC(=O)O [NABUT, Butyrate]
[1]
  Bioactivity range (ΔpIC50) DpIC50: 1.95
[2]; experimental value of modeled complex
  pIC50exp: 4.648
[2]; training set composition
  pIC50: 4.65
[2]; [7]
  IC50: 22.5 µM
[3]; training set composition
  pIC50: 4.52
[3]; [7]
  IC50: 30 µM
[4]
  pIC50 (lower end of training set activity range): 2.7
[5]; HDAC6-1 (histone catalytic domain)
  pIC50exp: 3
[5]; HDAC6-1
  pIC50: 3.00
[5]; HDAC6-2 (tubulin catalytic domain)
  pIC50exp: 3
[5]; HDAC6-2
  pIC50: 3.00
[5]; HDAC6, training set, read-out: HDACs inhibitory activities IC50
  IC50: 1000 µM
[6]; training set composition
  pIC50: 4.52
[6]; [7]
  IC50: 30 µM
